Data published in publication PMC10009755, “Discovery and Characterization of BAY-805, a Potent and Selective Inhibitor of Ubiquitin-Specific Protease USP21” (Journal of Medicinal Chemistry, 2023).
≈ marks a conversion by molar mass, not a printed value. Like-named read-outs stand apart in the source and are kept apart here.

Columns and labels:
[1] = Aqueous solubility; type: physicochemical; conditions: PBS pH 6.5, pH 6.5, PBS pH 6.5
Method: Test compounds were applied as DMSO solutions or directly from powder. After the addition of the buffer, solutions were shaken at rt for 24 h. The undissolved material was removed by filtration or centrifugation. The compound dissolved in the supernatant was quantified by HPLC-UV or HPLC-MS/MS.

[2] = molecular target: T1, USP21 (Homo sapiens, UniProt Q9UK80); assay: biochemical
T1 sequence (Q9UK80 1-565): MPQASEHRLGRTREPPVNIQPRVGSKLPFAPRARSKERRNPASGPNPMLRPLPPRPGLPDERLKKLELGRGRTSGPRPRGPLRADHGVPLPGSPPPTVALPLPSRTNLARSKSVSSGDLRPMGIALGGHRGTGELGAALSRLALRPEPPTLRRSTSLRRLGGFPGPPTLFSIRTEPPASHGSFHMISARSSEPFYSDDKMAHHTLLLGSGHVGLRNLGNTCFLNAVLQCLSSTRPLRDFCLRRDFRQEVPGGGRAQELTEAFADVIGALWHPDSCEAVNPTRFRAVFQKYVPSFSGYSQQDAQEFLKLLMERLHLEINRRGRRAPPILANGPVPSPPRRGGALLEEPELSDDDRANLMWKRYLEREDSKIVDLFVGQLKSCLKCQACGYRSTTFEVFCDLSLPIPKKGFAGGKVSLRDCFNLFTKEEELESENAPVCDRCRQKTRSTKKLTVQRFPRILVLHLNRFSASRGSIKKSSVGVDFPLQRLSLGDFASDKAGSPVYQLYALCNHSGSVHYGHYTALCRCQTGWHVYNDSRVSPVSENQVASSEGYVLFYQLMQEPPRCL
Method: To this end, we developed a USP21 activity assay that is based on the deubiquitination of a STING-derived peptide (a USP21-specific substrate[17],[18]) by purified recombinant human full-length USP21 using time-resolved fluorescence resonance energy transfer (TR-FRET) technology (referred to as a homogeneous time-resolved fluorescence (HTRF)-assay, for details see the Supporting Information).[39]
All substrate and enzyme solutions were diluted in an assay buffer. […] Incubation time was 15–20 min at room temperature. […] The stop solution (DUB inhibitor PR619, Abcam) was prepared in 25 mM HEPES, pH 7.5 (Alfa Aesar) containing 0.01% BSA and then left for 10 min at room temperature before filtering with a 0.2 μM PES Membrane (Thermo Fisher). The reaction was stopped with the addition of 2 μL of 200 μM PR619. […] The plates were measured on the ViewLux in screening or PHERAstar FSX in compound profiling. […] The number of flashes per well was set to 3. All of the experimental data were plotted using Genedata analysis. The Z′-factor and S/B of the assay were >0.7 and ∼2, respectively.

[3] = in vitro; type: in vitro ADME; conditions: human, Caco-2, pH 7.2
Method: Caco-2 cells [purchased from the German Collection of Microorganisms and Cell Cultures (DSMZ)] were seeded at a density of 4.5 × 10^4 cells/well on 24-well insert plates [0.4 μm pore size, 0.3 cm^2 (Costar)] and grown for 13–15 days in DMEM medium supplemented with 10% fetal calf serum (FCS), 1% GlutaMAX (100×, Gibco), 100 U/mL penicillin, 100 μg/mL streptomycin (Gibco), and 1% nonessential amino acids (100×, Thermo Fischer Scientific). […] The medium was changed every 2–3 days.
The bidirectional transport assay for the evaluation of Caco-2 permeability was undertaken in 24-well insert plates using a robotic system (Tecan). Before the assay was run, the culture medium was replaced by a transport medium (FCS-free HEPES carbonate transport buffer pH 7.2). For the assessment of monolayer integrity, the transepithelial electrical resistance (TEER) was measured. Only monolayers with a TEER of at least 400 Ω·cm^2 were used. Test compounds were pre-dissolved in DMSO and added either to the apical or basolateral compartment at a final concentration of 2 μM. The evaluation was performed in triplicate. […] The efflux ratio (ER) basolateral (B) to apical (A) was calculated by dividing Papp B–A by Papp A–B.

[4] = test system: NF-κB activation; assay: NF-κB reporter assay; type: cell-based; conditions: HEK293T cells, up to 10 μM
Method: Yang and colleagues reported that USP21 inhibition induces NF-κB activation by preventing deubiquitination of RIP1.[15] K63 ubiquitinated RIP1 is required for NF-κB activation, and thus USP21-mediated deubiquitination of RIP1 shuts down the NF-κB pathway.
Four hours after replating, cells were treated with compounds or DMSO (note: DMSO concentrations were kept consistent across all cells). Promega Dual-Luciferase Reporter Assay kit was then used to prepare samples for Firefly and Renilla signal measurement on a CLARIOstar microplate reader (BMG) 20 h after compound treatment. Relative luciferase units were calculated by normalizing the Firefly signal to the background Renilla signal, followed by normalization to DMSO controls of wild-type USP21.

[5] = log D measurement (HPLC); type: physicochemical; conditions: reverse-phase HPLC, pH 7.5, pH 7.5, HPLC method; read-out: logD7.5
Method: log D values at pH 7.5 were recorded using an indirect method for determining hydrophobicity constants by reverse-phase HPLC. A series of compounds with well-known log D values were used for calibration. Test compounds were injected into the same HPLC system. The lipophilicity of compounds was then assessed by comparison to the calibration curve.

[6] = molecular target: T2, C-terminal HiBiT-tagged USP21 (Homo sapiens, UniProt Q9UK80); assay: USP21 HiBiT CETSA; type: cell-based; conditions: 49 °C, HEK293T cells
T2 construct: expressed in transfected cells; host or cells: HEK293T
T2 sequence (Q9UK80 1-565): T1 sequence (Q9UK80 1-565)
Method: In particular, we utilized a HiBiT CETSA assay format[42],[43] conducted in intact HEK293T cells. Cells were transfected with USP21 fused to a small proluminescent NanoLuc HiBiT tag, which, when complemented with the Large BiT NanoLuc fragment, produces a quantifiable luminescence signal.
HEK293T cells were seeded in a six-well plate at 8 × 10^5 cells/well in 2 mL of DMEM supplemented with 10% FBS, penicillin (100 U/mL), and streptomycin (100 μg/mL) and transfected 4 h after seeding using an X-tremeGENE HP transfection reagent, following the manufacturer’s instructions with a total of 2 μg of plasmid constructs (C-terminally tagged USP21 HiBiT and empty pCDNA3.1 vector). […] The breathable paper adhesive film was then replaced with a PCR adhesive film, and cells were heated at indicated temperatures in an Applied Biosystems VeritiPro thermal cycler for 3 min, followed by 3 min incubation at rt before the addition of LgBiT solution (200 nM LgBiT, 2% NP-40, protease inhibitors (Roche cOmplete, ethylenediaminetetraacetic acid (EDTA)-free Protease Inhibitor) in OptiMEM no phenol red (Gibco)) to lyse cells.

[7] = molecular target: T1, USP21
Method: The final assay volume was 6 μL. […] First, 2 μL of 1 nM USP21 (or selectivity enzyme) solution was added to the compound plate and preincubated for 15–20 min at room temperature. […] The reaction was stopped by 50 mM citric acid in 25 mM HEPES, pH 7.5, containing 0.01% BSA. […] The USP21 and USP22 were measured with five flashes and USP2 and USP7 in fly mode.

Compound `N#Cc1ccc(Cc2nnc(NC(=O)[C@H](NC(=O)C3(C(F)(F)F)CCCCC3)C3CCCC3)s2)cc1` [Compound 20, FC(F)(F)C1(CCCCC1)C(=O)N[C@H](C2CCCC2)C(=O)Nc3nnc(Cc4ccc(cc4)C#N)s3] has a solubility at 24 h [1] of 1.33 µM (≈ 0.691 µg/mL), an IC50 [2] of 13 nM and a Papp A→B at 2 h, 2 µM ([3]; 2 μM, 2 h) of 3.4 ×10⁻⁶ cm/s. For the same compound, the efflux ratio at 2 h, 2 µM ([3]; Papp B–A / Papp A–B, read-out: Caco-2 efflux ratio (ER)) was 0.7, the “NF-κB activation (in words)” value [4] was “significant NF-κB activation levels” and the chromatographic logD [5] was 3.7. For the same compound, the “cellular thermal stabilization of USP21 (in words)” value [6] was “Strong thermal stabilization of USP21” and the IC50 [7] was 8 nM.
